# From US20170305861A1, “HETEROARYL COMPOUNDS COMPRISING NITROGEN AND USE THEREOF” (ImmunoMet Therapeutics, Inc, priority 2016, published 2017)
# Read-outs that look alike come from different tables or passages of the source.
# Experiments:
# [1] = test system: A549 cell lines (lung cancer cell lines); assay: Oxygen Consumption Rate (OCR) of cells, corrected for cell viability (Cyquant); type: cell-based; conditions: Homo sapiens, read-out: OCR IC50
# Experimental: The compounds synthesized by the methods disclosed in the Examples of the present invention have been measured on oxygen consumption rate and extracellular oxidation by the methods disclosed in the Test Examples below.
# 3×10^3 cells from A549 cell lines (purchased from ATCC-American Type Culture Collection), which are lung cancer cell lines, were placed on XF96 cell culture plates using RPMI1640 medium, and cultured at 37° C. in a 5% CO2 condition for 16 hours or more for attachment.
# After 16 hours, the cells were treated with the drug at six different concentrations between 0 μM and 20 μM. After 24 hours, the existing medium was removed, and XF assay medium (15 mM D-Glucose, 15 mM sodium pyruvate, 4 mM L-Glutamine, pH 7.4) was added. The cells were retreated with the drug, and additionally cultured in Prep station at 37° C. in a non-CO2 condition for 1 hour. During the one-hour culture in the Prep station, a sensor cartridge was placed and calibrated for 20 minutes, and a plate with cells was placed to analyze the OCR. After the analysis was completed, XF96 plate was measured for cell viability using Cyquant assay, which measures the amount of intracellular DNA, in the following method. XF assay medium and the drug were removed, and the cells were placed in a cryogenic refrigerator (−80° C.) for at least 4 hours to be frozen. After the plate was made to be at room temperature, a solution where a lysis buffer and fluorescent GR dye were mixed was placed by 200 μL per well. After 20-minute reaction at room temperature, […] was measured between […] to calculate cell viability. A measured value of a well untreated with the drug was converted to 100% by reflecting cell viability to the OCR value. Concentration of a drug which inhibits the OCR value reflecting cell viability by 50% was calculated.
# SK-MEL-28 cells = assay: Inhibitory effect of cancer cell proliferation, MTT; type: cell-based; conditions: Homo sapiens
# Experimental: The compounds prepared in the above Examples were evaluated for the inhibitory effect of cancer cell proliferation according to the method described in the following Test Example.
# SK-MEL-28 cells derived from human melanoma were used, and the concentration (cell growth inhibitory concentration, IC50) at which cell growth was inhibited to 50% was measured using MTT reagent (3-(4,5-dimethylthiazole-2-yl)-2,5-[…] bromide) to confirm the inhibitory effect of cancer cell proliferation of the drugs synthesized in Examples 1 to 84.
# First, SK-MEL-28 cells were cultured in 96-well plates at a cell number of about 1,250 in RPMI-1640 medium containing 11.1 mM glucose and 10% calf blood serum or 0.75 mM glucose and 10% calf blood serum, and were cultured for 16 hours. […] After treatment of the compound, MTT was added to the culture medium to confirm living cells and further cultured for 2 hours. The resulting formazane crystal was dissolved using dimethyl sulfoxide, and the absorbance of the solution was measured at 555 nm. After culturing for 72 hours, the number of viable cells in the well plate treated with the compounds synthesized in the Examples relative to the number of cells cultured in the well plate without treatment of the compounds was expressed as cell viability (%) according to each treatment concentration. By using this, a cell viability curve graph was prepared, and the inhibitory effect of cancer cell proliferation was confirmed by calculating the concentration of the compound whose growth was inhibited to 50% (IC50).
# [2] = A549 cells, 24 h drug treatment, OCR value reflecting cell viability
# [3] = SK-MEL-28, 0.75 mM glucose, 72 hours, MTT, read-out: SK-MEL-28 0.75 mM glucose Cell viability (IC50 μM)
# [4] = SK-MEL-28, 11.1 mM glucose, 72 hours, MTT, read-out: SK-MEL-28 11.1 mM glucose Cell viability (IC50 μM)
# [5] = SK-MEL-28, 72 h, read-out: SK-MEL-28 0.75 mM glucose Cell viability (IC50 μM)
# [6] = SK-MEL-28, 72 h, read-out: SK-MEL-28 11.1 mM glucose Cell viability (IC50 μM)
"IC50 [1, 2]",IC50 (SK-MEL-28 cells; [3]),IC50 (SK-MEL-28 cells; [4]),Structure (SMILES),"IC50 ([1]; A549, 24 h)",IC50 (SK-MEL-28 cells; [5]),IC50 (SK-MEL-28 cells; [6])
2.1 µM,3.55 µM,104 µM,"c1coc(C[n+]2ccc(N3CCCC3)cc2)c1 [Example 78, 1-(Furan-2-ylmethyl)-4-(pyrrolidin-1-yl)pyridinium chloride]",,,
1.5 µM,7.7 µM,102 µM,"CNc1cc[n+](CCc2ccccc2)cc1 [Example 33, 4-(Methylamino)-1-phenethylpyridinium chloride]",,,
0.5 µM,1.1 µM,23 µM,"c1c[n+](CC2CCCCC2)ccc1N1CCCC1 [Example 57, 1-(Cyclohexylmethyl)-4-(pyrrolidin-1-yl)pyridinium bromide]",,,
2.8 µM,2.8 µM,33.4 µM,"c1ccc(C[n+]2ccc(N3CCCCC3)cc2)cc1 [Example 59, 1-Benzyl-4-(piperidin-1-yl)pyridinium chloride]",,,
3.3 µM,20 µM,24.1 µM,"c1ccc(C[n+]2ccc(N3CCCCCC3)cc2)cc1 [Example 60, 4-(Azepan-1-yl)-1-benzylpyridinium chloride]",,,
0.3 µM,8.1 µM,38.8 µM,"Nc1cc[n+](CCc2ccccc2)c(Cl)c1 [Example 32, 4-Amino-2-chloro-1-phenethylpyridinium chloride]",,,
0.9 µM,12.5 µM,27.4 µM,"Nc1cc[n+](Cc2ccccc2)c(F)c1 [Example 21, 4-Amino-1-benzyl-2-fluoropyridinium chloride]",,,
,,,"c1c[se]c(C[n+]2ccc(N3CCCC3)cc2)c1 [Example 72, 4-(Pyrrolidin-1-yl)-1-(selenophen-2-ylmethyl)pyridinium chloride]",1 µM,2.6 µM,37.2 µM
2.1 µM,4.15 µM,58.4 µM,Nc1cc(N2CCC2)cc[n+]1Cc1ccsc1 [Example 81],,,
0.9 µM,7.5 µM,30.6 µM,"Nc1cc[n+](CCC2CCCCC2)c(N)c1 [Example 40, 2,4-Diamino-1-(2-cyclohexylethyl)pyridinium bromide]",,,
3.4 µM,9.4 µM,49.5 µM,"c1c[n+](CC2CC2)ccc1N1CCC1 [Example 70, 4-(Azetidin-1-yl)-1-(cyclopropylmethyl)pyridinium chloride]",,,
,,,"Nc1cc[n+](CCc2ccccc2)cc1 [Example 1, 4-Amino-1-phenethylpyridinium chloride]",1.1 µM,17.9 µM,163 µM
0.8 µM,19.9 µM,46.3 µM,"Nc1cc[n+](CC2CCC2)c(F)c1 [Example 48, 4-Amino-1-(cyclobutylmethyl)-2-fluoropyridinium bromide]",,,
1.6 µM,15.5 µM,40.6 µM,"Nc1cc[n+](CC(=O)c2ccc(OC(F)(F)F)cc2)cc1 [Example 25, 4-Amino-1-(2-oxo-2-(4-(trifluoromethoxy)phenyl)ethyl)pyridinium bromide]",,,
1.1 µM,3.4 µM,29.7 µM,"c1ccc(C[n+]2ccc(N3CCCC3)cc2)cc1 [Example 54, 1-Benzyl-4-(pyrrolidin-1-yl)pyridinium chloride]",,,
2.3 µM,6.8 µM,47 µM,"Nc1cc[n+](CCc2ccccc2)c(C2CC2)c1 [Example 15, 4-amino-2-cyclopropyl-1-phenethylpyridinium iodide]",,,
5.3 µM,38.5 µM,162 µM,"Nc1cc[n+](Cc2ccccc2)c(N)c1 [Example 29, 2,4-Diamino-1-benzylpyridinium chloride]",,,
,,,"Nc1cc[n+](CCC2CCCCC2)cc1 [Example 27, 4-Amino-1-(2-cyclohexylethyl)pyridinium bromide]",0.4 µM,1.7 µM,19.5 µM

"IC50 [1, 2]",IC50 (SK-MEL-28 cells; [3]),IC50 (SK-MEL-28 cells; [4]),Structure (SMILES),"IC50 ([1]; A549, 24 h)",IC50 (SK-MEL-28 cells; [5]),IC50 (SK-MEL-28 cells; [6])
1.1 µM,7.9 µM,101 µM,"CNc1cc[n+](Cc2ccccc2)cc1 [Example 34, 1-Benzyl-4-(methylamino)pyridinium chloride]",,,
2.4 µM,10.3 µM,54.5 µM,"Nc1cc[n+](Cc2ccc(F)cc2)cc1 [Example 49, 4-Amino-1-(4-fluorobenzyl)pyridinium bromide]",,,
1.1 µM,15.2 µM,105 µM,"Cc1c[n+](CCc2ccccc2)ccc1N [Example 44, 4-Amino-3-methyl-1-phenethylpyridinium chloride]",,,
0.8 µM,7.9 µM,49.6 µM,"Nc1cc[n+](CC2CCCCC2)cc1 [Example 46, 4-Amino-1-(cyclohexylmethyl)pyridinium bromide]",,,
2.4 µM,102 µM,194 µM,"Nc1cc[n+](CC(=O)c2ccccc2)cc1 [Example 26, 4-Amino-1-(2-oxo-2-phenylethyl)pyridinium bromide]",,,
,,,"Nc1cc[n+](Cc2ccc[se]2)cc1 [Example 76, 4-Amino-1-(selenophen-2-ylmethyl)pyridinium chloride]",1.5 µM,14.1 µM,114 µM
1.1 µM,1.5 µM,10.8 µM,"CNc1cc[n+](Cc2ccc(Cl)c(Cl)c2)cc1 [Example 37, 1-(3,4-Dichlorobenzyl)-4-(methylamino)pyridinium chloride]",,,
1.8 µM,14.7 µM,143 µM,"Nc1cc[n+](Cc2ccccc2)cc1 [Example 20, 4-Amino-1-benzylpyridinium chloride]",,,
0.7 µM,2.8 µM,13.1 µM,"Nc1cc[n+](Cc2ccc(Cl)c(Cl)c2)cc1 [Example 36, 4-Amino-1-(3,4-dichlorobenzyl)pyridinium chloride]",,,
1.1 µM,1.5 µM,11.7 µM,"CN(C)c1cc[n+](Cc2ccc(Cl)c(Cl)c2)cc1 [Example 38, 1-(3,4-Dichlorobenzyl)-4-(dimethylamino)pyridinium chloride]",,,
7.9 µM,18.5 µM,193 µM,"c1ccc(CC[n+]2cccc3c2CCCC3)cc1 [Example 22, 1-Phenethyl-5,6,7,8-tetrahydroquinolinium chloride]",,,
2.7 µM,35.1 µM,234 µM,"CNc1cc[n+](CC2CC2)cc1 [Example 41, 1-(Cyclopropylmethyl)-4-(methylamino)pyridinium chloride]",,,
0.7 µM,11.9 µM,38.5 µM,"Nc1cc[n+](CCc2ccccc2Cl)cc1 [Example 11, 4-Amino-1-(2-chlorophenethyl)pyridinium chloride]",,,
10.2 µM,21 µM,187 µM,"c1c[n+](CC2CC2)cc2c1NCCO2 [Example 64, 6-(Cyclopropylmethyl)-2,3-dihydro-1H-pyrido[3,4-b][1,4]oxazin-6-ium chloride]",,,
0.9 µM,8.2 µM,23 µM,"Nc1cc[n+](Cc2ccccc2)c(Cl)c1 [Example 30, 4-Amino-1-benzyl-2-chloropyridinium chloride]",,,
4.3 µM,56.2 µM,418 µM,"Nc1cc[n+](CC2CC2)cc1 [Example 31, 4-Amino-1-(cyclopropylmethyl)pyridinium chloride]",,,
1 µM,13.9 µM,208 µM,"c1ccc(C[n+]2ccc(N3CCOCC3)cc2)cc1 [Example 50, 1-Benzyl-4-morpholinopyridinium chloride]",,,
0.8 µM,4.4 µM,118 µM,"c1c[n+](CC2CC2)ccc1N1CCCC1 [Example 56, 1-(Cyclopropylmethyl)-4-(pyrrolidin-1-yl)pyridinium chloride]",,,
